{"source": "patent US20240400986A1", "about": "“MEMBRANE BOUND COMPOSITIONS AND METHODS RELATING TO SAME” (FLAGSHIP PIONEERING INNOVATIONS VII, LLC, priority 2021, published 2024)", "key": {"[1]": {"system": "neuronal cell line derived from human neuroblastoma", "test": "Small molecule compound screen of gigasome production in neuronal monocultures", "settings": "for Number of Gigasomes Produced / Fold Change of Gigasomes Produced vs. DMSO: 24 hours", "source_text": "To quantify and characterize gigasome production using microscopy, while tracking cell viability/phenotype, a multi-readout system was developed that allowed simultaneous analysis of gigasomes harvested from cell culture media supernatants and respective gigasome producing cell viability. […] For the screening, a total of 99 compounds (TargetMol) were divided in 5 groups. Each group included an untreated condition, a vehicular DMSO control, and a known high-gigasome producing condition to comparatively study gigasome production rates. As a cell death control group, 500 nM Staurosporine was added to induce apoptosis. Cultures were incubated for 24 hours under gigasome inducing conditions at concentrations ranging between 10 nM and 10,000 nM. Before the end of the treatment, live neuronal cultures were imaged. The Zeiss ZEN Blue software was used to distribute imaging fields of view (positions) to create an unbiased imaging sample of a well. 5 images were taken using a Zeiss LSM 900 confocal microscope. […] The BioApps ZEN software package was used to perform cell nucleus segmentation and counting. After 24 hours, gigasomes were harvested from the cell culture media by gently removing from the top of each 96-well ⅔ of the total volume without disturbing the cell layer (containing the settled gigasomes) and by adding to each well the same amount of PBS. The wells were washed twice gently, and the gigasome-containing media/PBS wash was transferred into the well of a 384-well glass bottom plate. Cells remaining in the 96-well plates were assessed for viability using CellTiter-Glo (Promega).\nFor gigasome analysis in 384-well plates, the Zeiss ZEN Blue software was used to distribute positions to create an unbiased imaging sample of a well. 6 images per well were taken using a Zeiss LSM 900 confocal microscope.\nA watershed binary segmentation step was performed to separate grouped objects. For each particle in the mask, characteristic parameters of the particle were calculated and saved.\nParticles of interest were identified by thresholding by area and circularity. […] Circularity, defined by the formula 4pi(area/perimeter^2, was set to be between 0.8 and 1, where a value of 1.0 is a perfect circle, and a value of 0 is a line. Gigasomes were identified from the particles of interest by thresholding by mean nuclear signal. The nuclear signal threshold was set using a value equal to one fourth of a threshold value calculated by the Li auto-threshold algorithm applied to the distribution of all particles of interest. Particles of interest with nuclear signal below this value were considered “negative” for nuclear material and were identified as gigasomes. A sampling factor was calculated to extrapolate the total quantity of a type of object (particles, particles of interest, gigasomes) in the well. The sampling factor was the percentage of the well's area that was imaged. […] The normalized quantity or distribution of objects was described as a quantity or distribution of objects per 1000 cells."}, "[2]": {"system": "neuronal cell line derived from human neuroblastoma"}, "[3]": {"system": "cardiomyocytic cell line derived from human ventricular heart tissue", "test": "Small molecule compound screen of gigasome production in cardiomyocytic monocultures;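 further: gigasomes shed into the culture medium were imaged by confocal microscopy and counted as round particles lacking nuclear signal, extrapolated to the whole well, fold change is relative to DMSO vehicle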", "procedure": "For the screening, a total of 100 randomly organized compounds (TargetMol) were divided in 5 groups. Each group included an untreated condition, a vehicular DMSO control, and a known high-gigasome producing condition to comparatively study gigasome production rates. As a cell death control group, 500 nM Staurosporine was added to induce apoptosis. Cultures were incubated for 24 hours under gigasome inducing conditions at concentrations ranging between 10 nM and 10,000 nM. […] The Zeiss ZEN Blue software was used to distribute imaging fields of view (positions) to create an unbiased imaging sample of a well. 5 images were taken using a Zeiss LSM 900 confocal microscope. […] The BioApps ZEN software package was used to perform cell nucleus segmentation and counting. After 24 hours, gigasomes were harvested from the cell culture media by gently removing from the top of each 96-well ⅔ of the total volume without disturbing the cell layer (containing the settled gigasomes) and by adding to each well the same amount of PBS containing 0.5 mM EDTA. The wells were washed twice gently, and the gigasome-containing media/0.5 mM EDTA PBS wash was transferred into the well of a 384-well glass bottom plate. Cells remaining in the 96-well plates were assessed for viability using CellTiter-Glo (Promega).\nFor gigasome analysis in 384-well plates, the Zeiss ZEN Blue software was used to distribute positions to create an unbiased imaging sample of a well. 6 images per well were taken using a Zeiss LSM 900 confocal microscope. […] A watershed binary segmentation step was performed to separate grouped objects. For each particle in the mask, characteristic parameters of the particle were calculated and saved. […] Particles of interest were identified by thresholding by area and circularity. […] Circularity, defined by the formula 4pi(area/perimeter^2, was set to be between 0.8, where a value of 1.0 is a perfect circle, and a value of 0 is a line. Gigasomes were identified from the particles of interest by thresholding by mean nuclear signal. The nuclear signal threshold was set using a value equal to one quarter of a threshold value calculated by the Li auto-threshold algorithm applied to the distribution of all particles of interest. Particles of interest with nuclear signal below this value were considered “negative” for nuclear material and were identified as gigasomes. A sampling factor was calculated to extrapolate the total quantity of a type of object (particles, particles of interest, gigasomes) in the well. The sampling factor was the percentage of the well's area that was imaged. […] In some experiments, the number of cells in the cell cultures were estimated with a cell counter. […] The normalized quantity or distribution of objects was described as a quantity or distribution of objects per 1000 cells."}, "[4]": {"settings": "Homo sapiens, 24 h, read-out: Fold Change of Gigasomes Produced vs. DMSO"}, "[5]": {"settings": "Table 22, dose 10 nM, cardiomyocytes, 24 hours"}, "[6]": {"settings": "Table 22, dose 1000 nM, cardiomyocytes, 24 hours"}, "[7]": {"settings": "Table 22, dose 10000 nM, cardiomyocytes, 24 hours"}, "[8]": {"settings": "neuronal cells, dose 10 nM, 24 hours"}, "[9]": {"settings": "neuronal cells, dose 100 nM, 24 hours"}, "[10]": {"settings": "neuronal cells, dose 1000 nM, 24 hours"}, "[11]": {"settings": "neuronal cells, dose 10000 nM, 24 hours"}, "[12]": {"settings": "Table 23 (down-regulators), dose 10 nM, cardiomyocytes"}, "[13]": {"settings": "Table 23 (down-regulators), dose 100 nM, cardiomyocytes"}, "[14]": {"settings": "Table 23 (down-regulators), dose 1000 nM, cardiomyocytes"}, "[15]": {"settings": "Table 23 (down-regulators), dose 10000 nM, cardiomyocytes"}}, "note": "Where two headings read alike, the source gives them in different places."}
{"smiles": "C/C(=C\\c1csc(C)n1)[C@@H]1C[C@@H]2O[C@]2(C)CCC[C@H](C)[C@H](O)[C@@H](C)C(=O)C(C)(C)[C@@H](O)CC(=O)N1", "note": "[Ixabepilone]", "values": [{"measurement": "fold induction at 0.01 µM", "setting": "[1]; [4]", "result": "2 to 3"}, {"measurement": "Number of Gigasomes Produced", "setting": "[1]; neuronal cells, dose 10 nM", "result": "65-75"}, {"measurement": "Viability", "setting": "[2]; human, 24 h, 10 nM", "result": "50-75%"}]}
{"smiles": "COc1ccc(S(=O)(=O)N(CCO)c2ccccc2CN(C)C/C=C/c2ccc(Cl)cc2)cc1", "note": "[KN-93, reference compound]", "values": [{"measurement": "Fold Change of Gigasomes Produced vs. DMSO", "setting": "[3]; [5]", "result": "1.25-1.5"}, {"measurement": "Number of Gigasomes Produced", "setting": "[3]; [5]", "result": "225-250"}, {"measurement": "Fold Change of Gigasomes Produced vs. DMSO", "setting": "[3]; [6]", "result": "1.25-1.5"}, {"measurement": "Number of Gigasomes Produced", "setting": "[3]; [6]", "result": "250-275"}, {"measurement": "Fold Change of Gigasomes Produced vs. DMSO", "setting": "[3]; [7]", "result": "1.5-1.75"}, {"measurement": "Number of Gigasomes Produced", "setting": "[3]; [7]", "result": "250-275"}]}
{"smiles": "CC(C)(O)c1coc(S(=O)(=O)NC(=O)Nc2c3c(cc4c2CCC4)CCC3)c1", "note": "[MCC950 sodium]", "values": [{"measurement": "fold induction at 0.01 µM", "setting": "[1]; [4]", "result": "1 to 1.25"}, {"measurement": "fold induction at 0.1 µM", "setting": "[1]; [4]", "result": "1 to 1.25"}, {"measurement": "fold induction at 1 µM", "setting": "[1]; [4]", "result": "0.5 to 0.75"}, {"measurement": "fold induction at 10 µM", "setting": "[1]; [4]", "result": "0.75 to 1"}, {"measurement": "Number of Gigasomes Produced", "setting": "[1]; neuronal cells, dose 10 nM", "result": "35-40"}, {"measurement": "Number of Gigasomes Produced", "setting": "[1]; neuronal cells, dose 100 nM", "result": "35-40"}, {"measurement": "Number of Gigasomes Produced", "setting": "[1]; neuronal cells, dose 1000 nM", "result": "20-25"}, {"measurement": "Number of Gigasomes Produced", "setting": "[1]; neuronal cells, dose 10000 nM", "result": "25-30"}, {"measurement": "Viability", "setting": "[2]; [8]", "result": 100, "unit": "%"}, {"measurement": "Viability", "setting": "[2]; [9]", "result": ">75", "unit": "%"}, {"measurement": "Viability", "setting": "[2]; [10]", "result": 100, "unit": "%"}, {"measurement": "Viability", "setting": "[2]; [11]", "result": 100, "unit": "%"}]}
{"smiles": "CCCCCCCCCCCCCC[N+](C)(C)C.[Br-]", "note": "[MiTMAB, reference compound]", "values": [{"measurement": "Fold Change of Gigasomes Produced vs. DMSO", "setting": "[1]; neuronal cells, dose 10000 nM", "result": "2.0-3.0"}, {"measurement": "Number of Gigasomes Produced", "setting": "[1]; neuronal cells, dose 10000 nM", "result": "55-65"}, {"measurement": "Viability", "setting": "[2]; [11]", "result": ">75", "unit": "%"}]}
{"smiles": "CN[C@H](CC(=O)O)C(=O)O", "note": "[NMDA, reference compound]", "values": [{"measurement": "Fold Change of Gigasomes Produced vs. DMSO", "setting": "[1]; neuronal cells, dose 10 nM", "result": "0.75-1.0"}, {"measurement": "Number of Gigasomes Produced", "setting": "[1]; neuronal cells, dose 10 nM", "result": "30-35"}, {"measurement": "Fold Change of Gigasomes Produced vs. DMSO", "setting": "[1]; neuronal cells, dose 100 nM", "result": "0.75-1.0"}, {"measurement": "Number of Gigasomes Produced", "setting": "[1]; neuronal cells, dose 100 nM", "result": "30-35"}, {"measurement": "Fold Change of Gigasomes Produced vs. DMSO", "setting": "[1]; neuronal cells, dose 1000 nM", "result": "0.5-0.75"}, {"measurement": "Number of Gigasomes Produced", "setting": "[1]; neuronal cells, dose 1000 nM", "result": "20-25"}, {"measurement": "Fold Change of Gigasomes Produced vs. DMSO", "setting": "[1]; neuronal cells, dose 10000 nM", "result": "0.25-0.5"}, {"measurement": "Number of Gigasomes Produced", "setting": "[1]; neuronal cells, dose 10000 nM", "result": "15-20"}, {"measurement": "downregulation of gigasome production", "setting": "[1]; neuronal cells, doses 10-10,000 nM, 24 h", "result": "dose-dependent downregulation"}, {"measurement": "Viability", "setting": "[2]; [8]", "result": 100, "unit": "%"}, {"measurement": "Viability", "setting": "[2]; [9]", "result": 100, "unit": "%"}, {"measurement": "Viability", "setting": "[2]; [10]", "result": 100, "unit": "%"}, {"measurement": "Viability", "setting": "[2]; [11]", "result": 100, "unit": "%"}]}
{"smiles": "CCCCc1ccc(NC(C)=O)c(C)c1", "note": "[SMIP004]", "values": [{"measurement": "Fold Change of Gigasomes Produced vs. DMSO", "setting": "[3]; [6]", "result": "1.0-1.25"}, {"measurement": "Number of Gigasomes Produced", "setting": "[3]; [6]", "result": "150-175"}, {"measurement": "Fold Change of Gigasomes Produced vs. DMSO", "setting": "[3]; [7]", "result": "1.25-1.5"}, {"measurement": "Number of Gigasomes Produced", "setting": "[3]; [7]", "result": "175-200"}, {"measurement": "Fold Change of Gigasomes Produced vs. DMSO", "setting": "[1]; neuronal cells, dose 10 nM", "result": ">1.25"}, {"measurement": "Number of Gigasomes Produced", "setting": "[1]; neuronal cells, dose 10 nM", "result": ">40"}, {"measurement": "Fold Change of Gigasomes Produced vs. DMSO", "setting": "[1]; neuronal cells, dose 100 nM", "result": "0.75-1.0"}, {"measurement": "Number of Gigasomes Produced", "setting": "[1]; neuronal cells, dose 100 nM", "result": "35-40"}, {"measurement": "Fold Change of Gigasomes Produced vs. DMSO", "setting": "[1]; neuronal cells, dose 1000 nM", "result": "0.75-1.0"}, {"measurement": "Number of Gigasomes Produced", "setting": "[1]; neuronal cells, dose 1000 nM", "result": "30-35"}, {"measurement": "Fold Change of Gigasomes Produced vs. DMSO", "setting": "[1]; neuronal cells, dose 10000 nM", "result": "0.75-1.0"}, {"measurement": "Number of Gigasomes Produced", "setting": "[1]; neuronal cells, dose 10000 nM", "result": "30-35"}]}
{"smiles": "O=C(Nc1ccccc1-c1cn2c(CN3CCNCC3)csc2n1)c1cnc2ccccc2n1", "note": "[SRT 1720]", "values": [{"measurement": "Fold Change of Gigasomes Produced vs. DMSO", "setting": "[3]; [6]", "result": "1.0-1.25"}, {"measurement": "Number of Gigasomes Produced", "setting": "[3]; [6]", "result": "150-175"}]}
{"smiles": "NC(=O)C1CCCc2c1[nH]c1ccc(Cl)cc21", "note": "(stereo not shown) [Selisistat]", "values": [{"measurement": "Fold Change of Gigasomes Produced vs. DMSO", "setting": "[3]", "result": "1.25-1.5"}, {"measurement": "Number of Gigasomes Produced", "setting": "[3]; [5]", "result": "150-175"}]}
{"smiles": "CCC(C)(C)C(=O)O[C@H]1C[C@@H](C)C=C2C=C[C@H](C)[C@H](CC[C@@H]3C[C@@H](O)CC(=O)O3)[C@H]21", "note": "[Simvastatin]", "values": [{"measurement": "Number of Gigasomes Produced", "setting": "[1]; neuronal cells, dose 100 nM", "result": "<35"}, {"measurement": "Number of Gigasomes Produced", "setting": "[1]; neuronal cells, dose 1000 nM", "result": "35-45"}, {"measurement": "Number of Gigasomes Produced", "setting": "[1]; neuronal cells, dose 10000 nM", "result": "45-55"}]}
{"smiles": "Fc1ccc(CNc2ncnc3ccc(F)cc23)cc1", "note": "[Spautin-1]", "values": [{"measurement": "Fold Change of Gigasomes Produced vs. DMSO", "setting": "[3]; [12]", "result": "0.75-1.0"}, {"measurement": "Number of Gigasomes Produced", "setting": "[3]; [12]", "result": "105-120"}, {"measurement": "Fold Change of Gigasomes Produced vs. DMSO", "setting": "[3]; [13]", "result": "0.75-1.0"}, {"measurement": "Number of Gigasomes Produced", "setting": "[3]; [13]", "result": "120-135"}, {"measurement": "Fold Change of Gigasomes Produced vs. DMSO", "setting": "[3]; [14]", "result": "0.5-0.75"}, {"measurement": "Number of Gigasomes Produced", "setting": "[3]; [14]", "result": "90-105"}, {"measurement": "Fold Change of Gigasomes Produced vs. DMSO", "setting": "[3]; [15]", "result": "0.5-0.75"}, {"measurement": "Number of Gigasomes Produced", "setting": "[3]; [15]", "result": "75-90"}]}
{"smiles": "O=C(Oc1cccc(F)c1OC(=O)c1cccc(O)c1)c1cccc(O)c1", "note": "[WZB117, reference compound]", "values": [{"measurement": "Fold Change of Gigasomes Produced vs. DMSO", "setting": "[3]; [12]", "result": "1.0-1.25"}, {"measurement": "Number of Gigasomes Produced", "setting": "[3]; [12]", "result": "120-135"}, {"measurement": "Fold Change of Gigasomes Produced vs. DMSO", "setting": "[3]; [13]", "result": "0.75-1.0"}, {"measurement": "Number of Gigasomes Produced", "setting": "[3]; [13]", "result": "105-120"}, {"measurement": "Fold Change of Gigasomes Produced vs. DMSO", "setting": "[3]; [14]", "result": "0.75-1.0"}, {"measurement": "Number of Gigasomes Produced", "setting": "[3]; [14]", "result": "105-120"}, {"measurement": "Fold Change of Gigasomes Produced vs. DMSO", "setting": "[3]; [15]", "result": "0.25-0.5"}, {"measurement": "Number of Gigasomes Produced", "setting": "[3]; [15]", "result": "35-50"}, {"measurement": "downregulation of gigasome production", "setting": "[3]; cardiomyocytes, doses 10-10,000 nM, 24 h", "result": "dose-dependent downregulation"}]}
